Measurements from the NIST ThermoML archive (doi:10.1016/j.jct.2015.05.024).

Assay: xn = mol fraction of the nth substance listed
Conditions: 100 kPa, Liquid; for speed of sound: Frequency=5 MHz, Pulse-echo method; for mass density: Vibrating tube method

OCCOCCOCCO [triethylene glycol] + O
Conditions	mass density [kg/m3]	speed of sound [m/s]
293.15 K, x1 = 0.0107	1010.53	–
293.15 K, x1 = 0.02047	1020.73	–
293.15 K, x1 = 0.03972	1038.14	–
293.15 K, x1 = 0.04979	1045.97	–
293.15 K, x1 = 0.06996	1059.39	–
293.15 K, x1 = 0.09424	1072.14	–
293.15 K, x1 = 0.1481	1091	–
293.15 K, x1 = 0.1752	–	1744.6
293.15 K, x1 = 0.1869	–	1743.5
293.15 K, x1 = 0.2006	1101.53	–
293.15 K, x1 = 0.2052	–	1740.7
293.15 K, x1 = 0.2239	–	1736.8
293.15 K, x1 = 0.2502	1107.61	–
293.15 K, x1 = 0.2513	–	1730.1
293.15 K, x1 = 0.2755	–	1723.7
293.15 K, x1 = 0.2988	1111.51	–
293.15 K, x1 = 0.3023	–	1716.7
293.15 K, x1 = 0.3492	1114.3	–
293.15 K, x1 = 0.3754	–	1699
293.15 K, x1 = 0.3925	1116.06	–
293.15 K, x1 = 0.4338	–	1686.6
293.15 K, x1 = 0.4502	1117.81	–
293.15 K, x1 = 0.4877	1118.7	–
293.15 K, x1 = 0.5004	1118.97	–
293.15 K, x1 = 0.5151	–	1671.3
293.15 K, x1 = 0.5739	1120.23	–
293.15 K, x1 = 0.58	1120.32	–
293.15 K, x1 = 0.6233	–	1654.9
293.15 K, x1 = 0.6465	1121.14	–
293.15 K, x1 = 0.651	1121.19	–
293.15 K, x1 = 0.7008	1121.67	–
293.15 K, x1 = 0.7471	1122.06	–
293.15 K, x1 = 0.7677	1122.21	–
293.15 K, x1 = 0.7815	–	1641.2
293.15 K, x1 = 0.82	1122.57	–
293.15 K, x1 = 0.8623	1122.83	–
293.15 K, x1 = 0.8792	1122.93	–
293.15 K, x1 = 0.8924	–	1634.7
293.15 K, x1 = 0.8975	1123.03	–
293.15 K, x1 = 0.9203	1123.15	–
293.15 K, x1 = 0.9514	1123.32	–
293.15 K, x1 = 0.9634	–	1630.2
293.15 K, x1 = 0.9692	1123.41	–
293.15 K, x1 = 1	1123.56	1629
298.15 K, x1 = 0.000655	–	1499.7
298.15 K, x1 = 0.003093	–	1510.2
298.15 K, x1 = 0.008719	–	1533.1
298.15 K, x1 = 0.0107	1009.15	–
298.15 K, x1 = 0.01513	–	1557
298.15 K, x1 = 0.02047	1019.12	–
298.15 K, x1 = 0.02053	–	1575.4
298.15 K, x1 = 0.0297	–	1603.3
298.15 K, x1 = 0.03817	–	1625.7
298.15 K, x1 = 0.03972	1036.1	–
298.15 K, x1 = 0.04526	–	1642.1
298.15 K, x1 = 0.04979	1043.71	–
298.15 K, x1 = 0.05106	–	1654.1
298.15 K, x1 = 0.05839	–	1667.6
298.15 K, x1 = 0.0674	–	1681.9
298.15 K, x1 = 0.06996	1056.75	–
298.15 K, x1 = 0.0766	–	1694.1
298.15 K, x1 = 0.08268	–	1701
298.15 K, x1 = 0.08879	–	1707
298.15 K, x1 = 0.09424	1069.14	–
298.15 K, x1 = 0.09568	–	1712.9
298.15 K, x1 = 0.1024	–	1717.7
298.15 K, x1 = 0.1041	–	1718.8
298.15 K, x1 = 0.1099	–	1722.2
298.15 K, x1 = 0.1152	–	1724.8
298.15 K, x1 = 0.1205	–	1727
298.15 K, x1 = 0.127	–	1729.3
298.15 K, x1 = 0.1291	–	1729.9
298.15 K, x1 = 0.1383	–	1731.9
298.15 K, x1 = 0.1474	–	1733.1
298.15 K, x1 = 0.1481	1087.52	–
298.15 K, x1 = 0.1587	–	1733.7
298.15 K, x1 = 0.1675	–	1733.4
298.15 K, x1 = 0.1757	–	1732.8
298.15 K, x1 = 0.1834	–	1731.9
298.15 K, x1 = 0.2006	1097.87	–
298.15 K, x1 = 0.2026	–	1728.7
298.15 K, x1 = 0.221	–	1724.7
298.15 K, x1 = 0.2393	–	1720.1
298.15 K, x1 = 0.2502	1103.88	–
298.15 K, x1 = 0.2566	–	1715.5
298.15 K, x1 = 0.2906	–	1706.3
298.15 K, x1 = 0.2988	1107.76	–
298.15 K, x1 = 0.3492	1110.52	–
298.15 K, x1 = 0.3533	–	1690.5
298.15 K, x1 = 0.3925	1112.26	–
298.15 K, x1 = 0.427	–	1674.4
298.15 K, x1 = 0.4502	1113.99	–
298.15 K, x1 = 0.4877	1114.87	–
298.15 K, x1 = 0.5004	1115.13	–
298.15 K, x1 = 0.5126	–	1658.3
298.15 K, x1 = 0.5739	1116.38	–
298.15 K, x1 = 0.58	1116.47	–
298.15 K, x1 = 0.5907	–	1645.7
298.15 K, x1 = 0.6465	1117.3	–
298.15 K, x1 = 0.651	1117.35	–
298.15 K, x1 = 0.7008	1117.83	–
298.15 K, x1 = 0.7471	1118.22	–
298.15 K, x1 = 0.7663	–	1627.2
298.15 K, x1 = 0.7677	1118.37	–
298.15 K, x1 = 0.82	1118.72	–
298.15 K, x1 = 0.8623	1118.97	–
298.15 K, x1 = 0.8792	1119.06	–
298.15 K, x1 = 0.8917	–	1620
298.15 K, x1 = 0.8975	1119.16	–
298.15 K, x1 = 0.9203	1119.28	–
298.15 K, x1 = 0.9514	1119.44	–
298.15 K, x1 = 0.9628	–	1615.6
298.15 K, x1 = 0.9692	1119.53	–
298.15 K, x1 = 1	1119.69	1613.5
303.15 K, x1 = 0.001004	–	1513.5
303.15 K, x1 = 0.002763	–	1520.4
303.15 K, x1 = 0.007937	–	1539.9
303.15 K, x1 = 0.0107	1007.53	–
303.15 K, x1 = 0.01123	–	1551.5
303.15 K, x1 = 0.01908	–	1577
303.15 K, x1 = 0.02047	1017.29	–
303.15 K, x1 = 0.0244	–	1592.6
303.15 K, x1 = 0.03263	–	1614.3
303.15 K, x1 = 0.03972	1033.87	–
303.15 K, x1 = 0.0428	–	1637.2
303.15 K, x1 = 0.05068	–	1652.5
303.15 K, x1 = 0.05793	–	1664.7
303.15 K, x1 = 0.06625	–	1676.8
303.15 K, x1 = 0.07426	–	1686.6
303.15 K, x1 = 0.08178	–	1694.5
303.15 K, x1 = 0.08886	–	1700.8
303.15 K, x1 = 0.0936	–	1704.5
303.15 K, x1 = 0.09852	–	1707.8
303.15 K, x1 = 0.102	–	1709.9
303.15 K, x1 = 0.1059	–	1712.1
303.15 K, x1 = 0.1101	–	1714.1
303.15 K, x1 = 0.1102	–	1714.2
303.15 K, x1 = 0.1147	–	1716
303.15 K, x1 = 0.1193	–	1717.7
303.15 K, x1 = 0.1248	–	1719.3
303.15 K, x1 = 0.1295	–	1720.5
303.15 K, x1 = 0.1308	–	1720.7
303.15 K, x1 = 0.1337	–	1721.3
303.15 K, x1 = 0.1393	–	1722.1
303.15 K, x1 = 0.1423	–	1722.4
303.15 K, x1 = 0.1457	–	1722.6
303.15 K, x1 = 0.1695	–	1722.1
303.15 K, x1 = 0.1857	–	1719.9
303.15 K, x1 = 0.2042	–	1716.3
303.15 K, x1 = 0.2252	–	1711.2
303.15 K, x1 = 0.2499	–	1704.6
303.15 K, x1 = 0.3027	–	1690
303.15 K, x1 = 0.3394	–	1680.6
303.15 K, x1 = 0.4052	–	1665.7
303.15 K, x1 = 0.4916	–	1649
303.15 K, x1 = 0.6074	–	1630
303.15 K, x1 = 0.7552	–	1614
303.15 K, x1 = 0.8683	–	1607.4
303.15 K, x1 = 0.9616	–	1601.7
303.15 K, x1 = 1	–	1599.1
